From patent EP0394553A2, “Use of fluorine containing pyridone carboxylic acid derivatives for preparing a medicament for the treatment of HIV infections” (DAIICHI PHARMACEUTICAL CO., LTD., priority 1989, dated 1990)
Where two headings read alike, the source gives them in different places.

Tested on: HIV (LAV 1)
Test: microbe, parasite or virus in culture
Settings: for Viable cell count / Viral antigen-positive cell percentage: 4-day addition; for viability at 1 µg/mL / viability at 10 µg/mL: Human immunodeficiency virus 1, CCRF-CEM
Experimental: Human T cell-derived, T4 antigen-positive CEM cells (provided by the Institut Pasteur, France) were used as host cells of HIV. Cell culture was carried out in a carbon dioxide-containing atmosphere in an incubator maintained at 37°C according to a conventional method [cf. […] The culture supernatant (5×10⁶ TCID₅₀/ml) obtained by subjecting CEM cells to HIV (LAV 1) infection and stored at -70°C was used as the HIV source.
The medium for cell culture (10 ml) placed in a plastic culture flask (25 cm²) was inoculated with CEM cells at a cell density of 2.5×10⁵ cells/ml. After 3 days of incubation, the culture was transferred to a 15-ml centrifuge tube and subjected to centrifugation at 1,000 revolutions per minute for 5 minutes for sedimentation of cells and removal of the culture medium.
The stock viral suspension was added to the host cells thus prepared to an MOI of 0.05 and the mixture was maintained at 37°C for 90 minutes with stirring at 30-minute intervals for viral adsorption. The medium was added to HIV-infected cells to a cell density of 5.0×10⁵ cells/ml to give an HIV-infected cell suspension.
A mixture (1.0 ml) of the three constituents mentioned below was added to each well of a 24-well plastic culture plate and the test substance final concentration was adjusted to 10 mcg/ml, 5 mcg/ml, 2.5 mcg/ml or 1 mcg/ml. The "no addition" wells (0 mcg/ml) served as controls.
After 4 days of incubation following viral infection, the cells in each well on the 24-well culture plate were suspended uniformly by pipetting and a 0.5-ml portion of the suspension was separated. A 2.0-ml portion of test substance-free fresh medium was added to the remaining 0.5-ml portion of the cell suspension, followed by incubation.
Seven days after viral infection, pipetting was performed to give a uniform cell suspension in each well and a 0.5-ml portion of the suspension was separated.
Incubation was continued and, 10 days after viral infection, a uniform cell suspension was produced in the same manner in each well and a 1.5-ml portion thereof was separated. A fresh 2.0-ml portion of the medium free of (or containing) the test substance was added to the well, followed by further incubation.
Fifteen days after viral infection, the cells in each well were suspended uniformly in the same manner in the medium and a 2.0-ml portion of the suspension was separated. A fresh 2.0-ml portion of the medium free of (or containing) the test substance was added to the remaining 0.5 ml of the cell suspension and incubation was continued.
Medium exchange was performed in the same manner 20 days and 25 days after viral infection.
The cell suspensions collected 4 days, 7 days, 10 days, 20 days and 30 days after viral infection were tested for viable cell count and viable cell percentage by trypan blue staining. At the same time, viral antigen-positive cell percentage determination was carried out by immunofluorescence using an anti-HIV antiserum isolated from a healthy carrier of HIV.
The numerical values given each is the mean for the respective two wells on the culture plate. The viable cell count is the total cell count minus the count of dead cells stained with trypan blue. The viable cell percentage is the percentage of viable cells among all the cells including dead cells. The viral antigen-positive cell percentage is the percentage of cells indicating antigen expression as found among all the cells including dead cells.

[1] = 96 h, read-out: Viable cell percentage, 1 mcg/ml, 4-day addition, after 4 days
[2] = 96 h, read-out: Viable cell percentage, 10 mcg/ml, 4-day addition, after 4 days
[3] = read-out: Viable cell percentage, 1 mcg/ml, 4-day addition, after 7 days
[4] = read-out: Viable cell percentage, 1 mcg/ml, 4-day addition, after 10 days
[5] = read-out: Viable cell percentage, 1 mcg/ml, 4-day addition, after 20 days
[6] = read-out: Viable cell percentage, 1 mcg/ml, 4-day addition, after 30 days
[7] = read-out: Viable cell percentage, 10 mcg/ml, 4-day addition, after 7 days
[8] = read-out: Viable cell percentage, 10 mcg/ml, 4-day addition, after 10 days
[9] = read-out: Viable cell percentage, 10 mcg/ml, 4-day addition, after 20 days
[10] = read-out: Viable cell percentage, 10 mcg/ml, 4-day addition, after 30 days

SMILES | Viable cell count (1 mcg/ml, after 4 days) | Viral antigen-positive cell percentage (1 mcg/ml, after 4 days) | Viable cell count (1 mcg/ml, after 7 days) | Viral antigen-positive cell percentage (1 mcg/ml, after 7 days) | Viable cell count (1 mcg/ml, after 10 days) | Viable cell count (1 mcg/ml, after 20 days) | Viable cell count (1 mcg/ml, after 30 days) | Viable cell count (10 mcg/ml, after 4 days) | Viral antigen-positive cell percentage (10 mcg/ml, after 4 days) | Viable cell count (10 mcg/ml, after 7 days) | Viral antigen-positive cell percentage (10 mcg/ml, after 7 days) | Viable cell count (10 mcg/ml, after 10 days) | Viral antigen-positive cell percentage (10 mcg/ml, after 10 days) | Viable cell count (10 mcg/ml, after 20 days) | Viral antigen-positive cell percentage (10 mcg/ml, after 20 days) | Viable cell count (10 mcg/ml, after 30 days) | Viral antigen-positive cell percentage (10 mcg/ml, after 30 days) | viability at 1 µg/mL [1] | viability at 10 µg/mL [2] | viability at 1 µg/mL [3] | further results
CCCN1CCN(c2c(F)cc3c(=O)c(C(=O)O)cn4c3c2OCC4C)CC1 (racemic) [IIIb, (±)-9-Fluoro-3-methyl-10-(4-n-propyl-1-piperazinyl)-7-oxo-2,3-dihydro-7H-pyrido[1,2,3-de][1,4]benzoxazine-6-carboxylic acid] | 220 × 10⁴ cells/ml | 88% | 53 × 10⁴ cells/ml | 62% | 19 × 10⁴ cells/ml | 25 × 10⁴ cells/ml | 14 × 10⁴ cells/ml | 190 × 10⁴ cells/ml | 80% | 62 × 10⁴ cells/ml | 50% | 240 × 10⁴ cells/ml | 40% | 320 × 10⁴ cells/ml | 13% | 300 × 10⁴ cells/ml | 4% | 89% | 89% | 75% | viability at 1 µg/mL [4]: 27%; viability at 1 µg/mL [5]: 81%; viability at 1 µg/mL [6]: 36%; viability at 10 µg/mL [7]: 70%; viability at 10 µg/mL [8]: 83%; viability at 10 µg/mL [9]: 92%; viability at 10 µg/mL [10]: 94%
CCN1CCN(c2c(F)cc3c(=O)c(C(=O)O)cn4c3c2OCC4C)CC1 (racemic) [IIIa, (±)-9-Fluoro-3-methyl-10-(4-ethyl-1-piperazinyl)-7-oxo-2,3-dihydro-7H-pyrido[1,2,3-de][1,4]benzoxazine-6-carboxylic acid] | 240 × 10⁴ cells/ml | 72% | 37 × 10⁴ cells/ml | 65% | 19 × 10⁴ cells/ml | 20 × 10⁴ cells/ml | 14 × 10⁴ cells/ml | 180 × 10⁴ cells/ml | 82% | 61 × 10⁴ cells/ml | 75% | 260 × 10⁴ cells/ml | 26% | 310 × 10⁴ cells/ml | 18% | 330 × 10⁴ cells/ml | 6% | 92% | 88% | 57% | Viral antigen-positive cell percentage (1 mcg/ml, after 10 days): 30%; Viral antigen-positive cell percentage (1 mcg/ml, after 20 days): 20%; viability at 1 µg/mL [4]: 30%; viability at 1 µg/mL [5]: 78%; viability at 1 µg/mL [6]: 40%; viability at 10 µg/mL [7]: 74%; viability at 10 µg/mL [8]: 93%; viability at 10 µg/mL [9]: 91%; viability at 10 µg/mL [10]: 94%
CCCCN1CCN(c2c(F)cc3c(=O)c(C(=O)O)cn4c3c2OCC4C)CC1 (racemic) [IIIc, (±)-9-Fluoro-3-methyl-10-(4-n-butyl-1-piperazinyl)-7-oxo-2,3-dihydro-7H-pyrido[1,2,3-de][1,4]benzoxazine-6-carboxylic acid] | 220 × 10⁴ cells/ml | 82% | 46 × 10⁴ cells/ml | 70% | 28 × 10⁴ cells/ml | 10 × 10⁴ cells/ml | 10 × 10⁴ cells/ml | 200 × 10⁴ cells/ml | 80% | 51 × 10⁴ cells/ml | 47% | 250 × 10⁴ cells/ml | 9% | 340 × 10⁴ cells/ml | 9% | 320 × 10⁴ cells/ml | 3% | 87% | 92% | 60% | viability at 1 µg/mL [4]: 33%; viability at 1 µg/mL [5]: 55%; viability at 1 µg/mL [6]: 32%; viability at 10 µg/mL [7]: 67%; viability at 10 µg/mL [8]: 93%; viability at 10 µg/mL [9]: 93%; viability at 10 µg/mL [10]: 95%
CC(C)N1CCN(c2c(F)cc3c(=O)c(C(=O)O)cn4c3c2OCC4C)CC1 (racemic) [IIId, (±)-9-Fluoro-3-methyl-10-(4-isopropyl-1-piperazinyl)-7-oxo-2,3-dihydro-7H-pyrido[1,2,3-de][1,4]benzoxazine-6-carboxylic acid] | 250 × 10⁴ cells/ml | 72% | 50 × 10⁴ cells/ml | 70% | 24 × 10⁴ cells/ml | 12 × 10⁴ cells/ml | 9 × 10⁴ cells/ml | 190 × 10⁴ cells/ml | 78% | 60 × 10⁴ cells/ml | 50% | 280 × 10⁴ cells/ml | 25% | 290 × 10⁴ cells/ml | 11% | 300 × 10⁴ cells/ml | 4% | 91% | 88% | 62% | viability at 1 µg/mL [4]: 28%; viability at 1 µg/mL [5]: 60%; viability at 1 µg/mL [6]: 31%; viability at 10 µg/mL [7]: 67%; viability at 10 µg/mL [8]: 91%; viability at 10 µg/mL [9]: 95%; viability at 10 µg/mL [10]: 94%
